Measurements as given in ChEMBL document CHEMBL3885881, “DrugMatrix”.

Species: Rattus norvegicus
Assay: DrugMatrix - Regimen: Daily Repeat
Assay type: toxicity, organism-based, Sprague-Dawley
Parameters: regimen Daily Repeat, gender Male, age 6-8 weeks
Settings: in vivo, po, route oral GAVAGE, vehicle 100 % WATER; for ABSOLUTE BASOPHIL / ABSOLUTE EOSINOPHIL / ABSOLUTE LYMPHOCYTE / ABSOLUTE MONOCYTE / ABSOLUTE SEGMENTED NEUTROPHIL / BASOPHIL / EOSINOPHIL / ERYTHROCYTE COUNT / HEMATOCRIT / HEMOGLOBIN / LEUKOCYTE COUNT / LYMPHOCYTE / MEAN CORPUSCULAR HEMOGLOBIN / MEAN CORPUSCULAR HEMOGLOBIN CONCENTRATION / MEAN CORPUSCULAR VOLUME / MONOCYTE / NEUTROPHIL / NUCLEATED RED BLOOD CELLS / PLATELET COUNT: tissue Blood; for ALANINE AMINOTRANSFERASE / ALBUMIN / ALKALINE PHOSPHATASE / ASPARTATE AMINOTRANSFERASE / BLOOD UREA NITROGEN / CARBON DIOXIDE / CHLORIDE / CHOLESTEROL / CREATINE PHOSPHOKINASE / CREATININE / GLUCOSE / LACTATE DEHYDROGENASE / LIPASE / PHOSPHORUS / POTASSIUM / SODIUM / TOTAL BILIRUBIN / TOTAL PROTEIN / URIC ACID: tissue Plasma
[1] = 300 mg/kg, 120 h, dose level Low, time 5 day
[2] = 3000 mg/kg, 72 h, dose level High, time 3 day
[3] = 3000 mg/kg, 120 h, dose level High, time 5 day

CC(Cl)(Cl)Cl [TRICHLOROETHANE]
ABSOLUTE BASOPHIL [1]: 0 CELLS/uL
ABSOLUTE EOSINOPHIL [1]: 0 CELLS/uL
ABSOLUTE LYMPHOCYTE [1]: 11569 CELLS/uL
ABSOLUTE MONOCYTE [1]: 149.67 CELLS/uL
ABSOLUTE SEGMENTED NEUTROPHIL [1]: 1081.33 CELLS/uL
BASOPHIL [1]: 0%
EOSINOPHIL [1]: 0%
ERYTHROCYTE COUNT [1]: 5.76 x10E6/uL
HEMATOCRIT [1]: 36.17%
HEMOGLOBIN [1]: 14.07 G/DL
LEUKOCYTE COUNT [1]: 12.8 x10E3/uL
LYMPHOCYTE [1]: 90%
MEAN CORPUSCULAR HEMOGLOBIN [1]: 24.43 pg
MEAN CORPUSCULAR HEMOGLOBIN CONCENTRATION [1]: 38.9 G/DL
MEAN CORPUSCULAR VOLUME [1]: 62.7 fL
MONOCYTE [1]: 1%
NEUTROPHIL [1]: 9%
NUCLEATED RED BLOOD CELLS [1]: 0.33 /100WBC
PLATELET COUNT [1]: 1070.67 x10E3/uL
ALANINE AMINOTRANSFERASE [1]: 50.33 u/L
ALBUMIN [1]: 4.07 G/DL
ALKALINE PHOSPHATASE [1]: 394 u/L
ASPARTATE AMINOTRANSFERASE [1]: 95 u/L
BLOOD UREA NITROGEN [1]: 16.33 mg/dL
CARBON DIOXIDE [1]: 32.33 mmol/L
CHLORIDE [1]: 103.33 MEQ/L
CHOLESTEROL [1]: 65 mg/dL
CREATINE PHOSPHOKINASE [1]: 400 u/L
CREATININE [1]: 0.17 mg/dL
GLUCOSE [1]: 135.67 mg/dL
LACTATE DEHYDROGENASE [1]: 117.67 u/L
LIPASE [1]: 10.67 u/L
PHOSPHORUS [1]: 11.3 mg/dL
POTASSIUM [1]: 6.41 MEQ/L
SODIUM [1]: 148.03 MEQ/L
TOTAL BILIRUBIN [1]: 0.2 mg/dL
TOTAL PROTEIN [1]: 6.03 G/DL
URIC ACID [1]: 0.9 mg/dL
ABSOLUTE BASOPHIL [2]: 0 CELLS/uL
ABSOLUTE EOSINOPHIL [2]: 0 CELLS/uL
ABSOLUTE LYMPHOCYTE [2]: 11145.5 CELLS/uL
ABSOLUTE MONOCYTE [2]: 120.5 CELLS/uL
ABSOLUTE SEGMENTED NEUTROPHIL [2]: 784 CELLS/uL
BASOPHIL [2]: 0%
EOSINOPHIL [2]: 0%
ERYTHROCYTE COUNT [2]: 6.08 x10E6/uL
HEMATOCRIT [2]: 38.1%
HEMOGLOBIN [2]: 14.85 G/DL
LEUKOCYTE COUNT [2]: 12.05 x10E3/uL
LYMPHOCYTE [2]: 92.5%
MEAN CORPUSCULAR HEMOGLOBIN [2]: 24.45 pg
MEAN CORPUSCULAR HEMOGLOBIN CONCENTRATION [2]: 39 G/DL
MEAN CORPUSCULAR VOLUME [2]: 62.65 fL
MONOCYTE [2]: 1%
NEUTROPHIL [2]: 6.5%
NUCLEATED RED BLOOD CELLS [2]: 0.5 /100WBC
PLATELET COUNT [2]: 1361.5 x10E3/uL
ALANINE AMINOTRANSFERASE [2]: 49.5 u/L
ALBUMIN [2]: 4.15 G/DL
ALKALINE PHOSPHATASE [2]: 322 u/L
ASPARTATE AMINOTRANSFERASE [2]: 87.5 u/L
BLOOD UREA NITROGEN [2]: 11.5 mg/dL
CARBON DIOXIDE [2]: 33 mmol/L
CHLORIDE [2]: 102.5 MEQ/L
CHOLESTEROL [2]: 91.5 mg/dL
CREATINE PHOSPHOKINASE [2]: 450 u/L
CREATININE [2]: 0.17 mg/dL
GLUCOSE [2]: 131 mg/dL
LACTATE DEHYDROGENASE [2]: 260 u/L
LIPASE [2]: 9.5 u/L
PHOSPHORUS [2]: 9.5 mg/dL
POTASSIUM [2]: 5.71 MEQ/L
SODIUM [2]: 148.15 MEQ/L
TOTAL BILIRUBIN [2]: 0.1 mg/dL
TOTAL PROTEIN [2]: 6.35 G/DL
URIC ACID [2]: 0.5 mg/dL
ABSOLUTE BASOPHIL [3]: 0 CELLS/uL
ABSOLUTE EOSINOPHIL [3]: 0 CELLS/uL
ABSOLUTE LYMPHOCYTE [3]: 9273 CELLS/uL
ABSOLUTE MONOCYTE [3]: 138.67 CELLS/uL
ABSOLUTE SEGMENTED NEUTROPHIL [3]: 1121.67 CELLS/uL
BASOPHIL [3]: 0%
EOSINOPHIL [3]: 0%
ERYTHROCYTE COUNT [3]: 5.95 x10E6/uL
HEMATOCRIT [3]: 36.77%
HEMOGLOBIN [3]: 13.97 G/DL
LEUKOCYTE COUNT [3]: 10.53 x10E3/uL
LYMPHOCYTE [3]: 87.67%
MEAN CORPUSCULAR HEMOGLOBIN [3]: 23.57 pg
MEAN CORPUSCULAR HEMOGLOBIN CONCENTRATION [3]: 37.97 G/DL
MEAN CORPUSCULAR VOLUME [3]: 62 fL
MONOCYTE [3]: 1.33%
NEUTROPHIL [3]: 11%
NUCLEATED RED BLOOD CELLS [3]: 0 /100WBC
PLATELET COUNT [3]: 1168 x10E3/uL
ALANINE AMINOTRANSFERASE [3]: 46.33 u/L
ALBUMIN [3]: 4.03 G/DL
ALKALINE PHOSPHATASE [3]: 272 u/L
ASPARTATE AMINOTRANSFERASE [3]: 71 u/L
BLOOD UREA NITROGEN [3]: 14.33 mg/dL
CARBON DIOXIDE [3]: 30.67 mmol/L
CHLORIDE [3]: 100.33 MEQ/L
CHOLESTEROL [3]: 74 mg/dL
CREATINE PHOSPHOKINASE [3]: 156.67 u/L
CREATININE [3]: 0.17 mg/dL
GLUCOSE [3]: 120.67 mg/dL
LACTATE DEHYDROGENASE [3]: 107 u/L
LIPASE [3]: 10.33 u/L
PHOSPHORUS [3]: 12.33 mg/dL
POTASSIUM [3]: 6.12 MEQ/L
SODIUM [3]: 147.17 MEQ/L
TOTAL BILIRUBIN [3]: 0.13 mg/dL
TOTAL PROTEIN [3]: 6.2 G/DL
URIC ACID [3]: 1.1 mg/dL
